Data from the NIST ThermoML archive (doi:10.1016/j.jct.2007.07.005).

Experiment: xn = mol fraction of the nth substance listed
Details: Fluid (supercritical or subcritical phases), vibrating tube

CCCCCO [pentan-1-ol] + O=C=O
Details | mass density [kg/m3]
352.79 K, 11040 kPa, x2 = 0.4651 | 785.81
352.79 K, 12030 kPa, x2 = 0.4651 | 787.74
352.79 K, 13014 kPa, x2 = 0.4651 | 789.67
352.79 K, 13996 kPa, x2 = 0.4651 | 791.51
352.79 K, 15009 kPa, x2 = 0.4651 | 793.37
352.79 K, 16021 kPa, x2 = 0.4651 | 795.22
352.79 K, 17023 kPa, x2 = 0.4651 | 797.01
352.79 K, 18036 kPa, x2 = 0.4651 | 798.78
352.79 K, 19033 kPa, x2 = 0.4651 | 800.49
352.79 K, 20034 kPa, x2 = 0.4651 | 802.15
352.79 K, 21019 kPa, x2 = 0.4651 | 803.78
352.79 K, 22005 kPa, x2 = 0.4651 | 805.38
352.79 K, 23048 kPa, x2 = 0.4651 | 807.02
352.79 K, 24005 kPa, x2 = 0.4651 | 808.54
352.8 K, 9062 kPa, x2 = 0.3624 | 787.17
352.8 K, 10017 kPa, x2 = 0.3624 | 788.44
352.8 K, 10962 kPa, x2 = 0.3624 | 789.67
352.8 K, 12014 kPa, x2 = 0.3624 | 790.98
352.8 K, 13057 kPa, x2 = 0.3624 | 792.31
352.8 K, 13992 kPa, x2 = 0.3624 | 793.46
352.8 K, 14992 kPa, x2 = 0.3624 | 794.66
352.8 K, 16050 kPa, x2 = 0.3624 | 795.91
352.8 K, 16062 kPa, x2 = 0.8573 | 704.48
352.8 K, 17018 kPa, x2 = 0.3624 | 797.04
352.8 K, 17045 kPa, x2 = 0.8573 | 717.71
352.8 K, 17979 kPa, x2 = 0.3624 | 798.17
352.8 K, 18036 kPa, x2 = 0.8573 | 728.91
352.8 K, 19024 kPa, x2 = 0.8573 | 738.63
352.8 K, 19050 kPa, x2 = 0.3624 | 799.37
352.8 K, 20029 kPa, x2 = 0.3624 | 800.46
352.8 K, 20047 kPa, x2 = 0.8573 | 747.71
352.8 K, 21012 kPa, x2 = 0.8573 | 755.39
352.8 K, 21035 kPa, x2 = 0.3624 | 801.59
352.8 K, 21985 kPa, x2 = 0.3624 | 802.63
352.8 K, 22013 kPa, x2 = 0.8573 | 762.78
352.8 K, 23021 kPa, x2 = 0.3624 | 803.75
352.8 K, 23034 kPa, x2 = 0.8573 | 769.78
352.8 K, 24022 kPa, x2 = 0.3624 | 804.82
352.8 K, 24038 kPa, x2 = 0.8573 | 776.16
352.8 K, 25026 kPa, x2 = 0.3624 | 805.9
352.8 K, 25052 kPa, x2 = 0.8573 | 782.21
352.81 K, 3095 kPa, x2 = 0.0816 | 772.79
352.81 K, 4022 kPa, x2 = 0.0816 | 773.74
352.81 K, 5003 kPa, x2 = 0.0816 | 774.75
352.81 K, 5979 kPa, x2 = 0.0816 | 775.73
352.81 K, 7007 kPa, x2 = 0.0816 | 776.72
352.81 K, 7981 kPa, x2 = 0.0816 | 777.7
352.81 K, 9053 kPa, x2 = 0.0816 | 778.72
352.81 K, 10025 kPa, x2 = 0.0816 | 779.66
352.81 K, 11031 kPa, x2 = 0.0816 | 780.6
352.81 K, 11999 kPa, x2 = 0.0816 | 781.51
352.81 K, 13023 kPa, x2 = 0.0816 | 782.45
352.81 K, 14012 kPa, x2 = 0.0816 | 783.34
352.81 K, 15005 kPa, x2 = 0.7274 | 763.67
352.81 K, 15006 kPa, x2 = 0.0816 | 784.24
352.81 K, 15032 kPa, x2 = 0.9216 | 609.93
352.81 K, 15993 kPa, x2 = 0.0816 | 785.1
352.81 K, 16001 kPa, x2 = 0.9216 | 637.91
352.81 K, 16021 kPa, x2 = 0.7274 | 769.33
352.81 K, 17044 kPa, x2 = 0.9216 | 660.91
352.81 K, 17045 kPa, x2 = 0.7274 | 774.53
352.81 K, 17064 kPa, x2 = 0.0816 | 786
352.81 K, 18013 kPa, x2 = 0.0816 | 786.86
352.81 K, 18017 kPa, x2 = 0.9216 | 678.45
352.81 K, 18023 kPa, x2 = 0.7274 | 779.16
352.81 K, 18992 kPa, x2 = 0.0816 | 787.69
352.81 K, 19030 kPa, x2 = 0.9216 | 693.91
352.81 K, 19050 kPa, x2 = 0.7274 | 783.67
352.81 K, 19999 kPa, x2 = 0.7274 | 787.59
352.81 K, 20017 kPa, x2 = 0.9216 | 707.27
352.81 K, 20032 kPa, x2 = 0.0816 | 788.58
352.81 K, 20998 kPa, x2 = 0.0816 | 789.4
352.81 K, 21041 kPa, x2 = 0.9216 | 719.46
352.81 K, 21063 kPa, x2 = 0.7274 | 791.77
352.81 K, 22012 kPa, x2 = 0.0816 | 790.22
352.81 K, 22020 kPa, x2 = 0.7274 | 795.33
352.81 K, 22043 kPa, x2 = 0.9216 | 730.24
352.81 K, 23032 kPa, x2 = 0.9216 | 740.03
352.81 K, 23038 kPa, x2 = 0.7274 | 798.99
352.81 K, 23043 kPa, x2 = 0.0816 | 791.09
352.81 K, 23982 kPa, x2 = 0.7274 | 802.22
352.81 K, 24064 kPa, x2 = 0.0816 | 791.93
352.81 K, 25028 kPa, x2 = 0.0816 | 792.72
352.81 K, 25068 kPa, x2 = 0.7274 | 805.8
352.86 K, 7013 kPa, x2 = 0.1347 | 777.29
352.86 K, 8003 kPa, x2 = 0.1347 | 778.24
352.86 K, 9042 kPa, x2 = 0.1347 | 779.29
352.86 K, 9997 kPa, x2 = 0.1347 | 780.21
352.86 K, 11043 kPa, x2 = 0.1347 | 781.23
352.86 K, 12025 kPa, x2 = 0.1347 | 782.2
352.86 K, 13003 kPa, x2 = 0.1347 | 783.16
352.86 K, 14006 kPa, x2 = 0.1347 | 784.13
352.86 K, 15015 kPa, x2 = 0.1347 | 785.07
352.86 K, 16005 kPa, x2 = 0.1347 | 786.01
352.86 K, 17031 kPa, x2 = 0.1347 | 786.94
352.86 K, 18022 kPa, x2 = 0.1347 | 787.86
352.86 K, 19009 kPa, x2 = 0.1347 | 788.74
352.86 K, 20022 kPa, x2 = 0.1347 | 789.63
352.86 K, 21024 kPa, x2 = 0.1347 | 790.52
352.86 K, 21995 kPa, x2 = 0.1347 | 791.37
352.86 K, 23030 kPa, x2 = 0.1347 | 792.28
352.86 K, 24029 kPa, x2 = 0.1347 | 793.15
352.86 K, 25004 kPa, x2 = 0.1347 | 793.98
352.88 K, 14062 kPa, x2 = 0.6054 | 787.97
352.88 K, 15034 kPa, x2 = 0.6054 | 790.53
352.88 K, 16029 kPa, x2 = 0.6054 | 793.07
352.88 K, 17048 kPa, x2 = 0.6054 | 795.6
352.88 K, 18046 kPa, x2 = 0.6054 | 798.05
352.88 K, 19026 kPa, x2 = 0.6054 | 800.32
352.88 K, 20030 kPa, x2 = 0.6054 | 802.6
352.88 K, 21058 kPa, x2 = 0.6054 | 804.93
352.88 K, 22056 kPa, x2 = 0.6054 | 807.03
352.88 K, 23049 kPa, x2 = 0.6054 | 809.11
352.88 K, 24065 kPa, x2 = 0.6054 | 811.21
352.88 K, 25092 kPa, x2 = 0.6054 | 813.29
362.58 K, 20013 kPa, x2 = 0.9757 | 578.28
362.58 K, 21042 kPa, x2 = 0.9757 | 600.7
362.58 K, 22020 kPa, x2 = 0.9757 | 619.68
362.58 K, 23010 kPa, x2 = 0.9757 | 637.03
362.58 K, 24034 kPa, x2 = 0.9757 | 653.33
362.58 K, 25047 kPa, x2 = 0.9757 | 667.94
362.59 K, 517 kPa, x2 = 0 | 759.7
362.59 K, 1023 kPa, x2 = 0 | 760.25
362.59 K, 2005 kPa, x2 = 0 | 761.26
